Read-outs that look alike come from different tables or passages of the source. Where only a bound is given, the exact number is not on record here.

The test system of data set [1] is M. tuberculosis within human monocyte-derived macrophages (MDM). The data set is classed as cell-based.
The test system of a further data set is P. aeruginosa biofilm. Description: Biofilm formation of GFP-labeled P. aeruginosa in continuous culture flow cells. In kind it is cell-based.
Data set [2] concerns P. aeruginosa. The experiment in a line: P. aeruginosa growth in 1:100 strength TSB medium (A600). The conditions noted are these: batch culture.
Experimental: Effect of gallium on the growth of P. aeruginosa. Bacteria were inoculated in 1:100 strength TSB medium with the indicated concentrations of gallium and grown at 37° C. with shaking. Growth was monitored as the change in A600 over 15 h.
Data set [3] relates to intraphagosomal M. tuberculosis. Description: 59Fe acquisition by M. tuberculosis within macrophage phagosomes. The following applies: 10 μM Ga(NO3)3; 59Fe transferrin. In kind it is cell-based. As to the method: FIG. 6. Ga-transferrin inhibits Fe acquisition by M. tuberculosis within macrophage phagosomes in a concentration-dependent manner. ^59Fe transferrin (10 μM) was added to M. tuberculosis-containing MDMs in the absence (control) or the presence of the indicated concentrations of Ga-transferrin for 24 h MDMs were lysed, and the lysates were filtered through a 0.22-μm (pore-size) filter. M. tuberculosis-associated radioactivity (expressed in cpm) on the filter was determined. Shown are the cpm values as a function of the Ga concentration added from a representative experiment.
Fe-TF is the major form of extracellular Fe, and transport of exogenously added TF to the M. tuberculosis-containing phagosome of human macrophages (Clemens et al., 1996) has been observed. It was therefore hypothesized that gallium competes with Fe uptake by bacteria dividing within the phagosome. […] This was not due to differences in total MDM ^59Fe.
In two recent preliminary experiments, MDM monolayers were preloaded with either ^59Fe or ^67Ga or both (pulse/chase, 24 h each). Erdman M. tuberculosis was then added. After 48 h, bacteria isolated from the phagosome were assessed for associated iron or gallium. Each metal could be found specifically associated with the bacteria.

For data set [4] the following is noted: patients with cancer-related hypercalcemia; cited from earlier work.
For the next data set, the target named is IdeR (Mycobacterium tuberculosis, UniProt P9WMH1). The experiment in a line: IdeR DNA binding, gel mobility shift assay with HisE promoter region. Set-up: species or system M. tuberculosis. The conditions noted are these: for IdeR binding to HisE promoter DNA fragment: 200 μM. From the text: The iron regulatory element, IdeR, regulates the production of catalase, SOD, and siderophores in mycobacteria (Dussurget et al., 1996) in a manner analogous to P. aeruginosa Fur. In order for DNA binding to occur, IdeR must be complexed with a divalent metal such as Fe^2+ or Ni^2+. The effect of Ga(NO3)3 on the binding (gel mobility shift assay) of IdeR was examined using the HisE promoter region from M. tuberculosis that contains a high affinity IdeR binding site (Schmitt et al., 1995). […] A similar lack of binding of Ga^3+ to P. aeruginosa Fur is expected based on these findings.

In another data set the test system is established biofilms. The experiment in a line: Killing of established three-day-old biofilms, viability by propidium iodide. The following applies: 10 μM, 100 μM, 1000 μM; 12, 24, 48, 72 hours. In kind it is cell-based, P. aeruginosa. The protocol:
FIGS. 10A-10D. Gallium kills established biofilms. Three-day-old biofilms were exposed to gallium in concentrations of 10 μM, 100 μM, and 1000 μM. Biofilm viability was assessed with propidium iodide, and observations were recorded at 12 hours (FIG. 10A), 24 hours (FIG. 10B), 48 hours (FIG. 10C), and 72 hours (FIG. 10D).
Three-day-old biofilms were exposed to gallium in concentrations of 10 μM, 100 μM, and 1000 μM. The biofilm viability was assessed with propidium iodide, and observations were recorded at 12 hours (FIG. 10A), 24 hours (FIG. 10B), 48 hours (FIG. 10C), and 72 hours (FIG. 10D).

For data set [5] the following is noted: human, in vivo; read-out: peak levels achieved clinically; cited from earlier work.
Data set [6] has as its system P. aeruginosa strain PA01. The experiment in a line: P. aeruginosa growth in iron-supplemented succinate media (A600). In kind it is cell-based. The following applies: 100 nM gallium. As to the method:
FIG. 7. P. aeruginosa was inoculated to an OD (A600) of about 0.010 into succinate media alone or with FeCl3 supplementation +/− the Ga chelates.
P. aeruginosa growth is dependent on the addition of exogenous Fe (FIG. 7). […] When gallium, either in the form of Ga(NO3)3 or Ga-TF, was added to iron-supplemented succinate media at concentrations ≧1 μM, a gallium concentration-dependent inhibition of P. aeruginosa growth was observed (FIG. 7). […] Similar results were observed under different conditions (see below).

For data set [7], the system named is Erdman M. tuberculosis. The experiment in a line: 59Fe acquisition by M. tuberculosis in 7H9 medium. In kind it is cell-based. The conditions noted are these: 500 nM 59Fe-citrate, 6 h. The protocol: FIGS. 4A-4B. […] Erdman M. tuberculosis (2×10^7 ml) was incubated for 6 h in 7H9 medium (without added Fe and OADC) with 500 nM ^59Fe-citrate (FIG. 4A) or ^67Ga-citrate (FIG. 4B) in the absence or presence of the indicated concentrations of cold competing metal. The bacteria were then washed repeatedly, and bacterium-associated ^67Ga or ^59Fe levels were determined. Results are shown as the amount of metal acquired as a function of increasing concentrations of the cold competing metal. Experimental groups were performed in triplicate, and the data shown represent three independent experiments (mean±SEM).

Data set [8] deals with T1, M. tuberculosis RR (Mycobacterium tuberculosis, UniProt P9WH71). Description: Radiolabeled CDP reduction assay for ribonucleotide reductase activity. The following applies: n=2; read-out: concentration that inhibited RR activity by 50%. In kind it is biochemical.
In data set [9] the target is T1, M. tuberculosis RR. The conditions noted are these: Yang et al., 1997; read-out: IC50, RR inhibition; cited from earlier work.
In data set [10] the test system is Erdman M. tuberculosis. In kind it is cell-based. The conditions noted are these: liquid media.
Data set [11] deals with P. aeruginosa. The following applies: cited from earlier work.

Sequence of IdeR (P9WMH1 whole entry, the tested form may be a part): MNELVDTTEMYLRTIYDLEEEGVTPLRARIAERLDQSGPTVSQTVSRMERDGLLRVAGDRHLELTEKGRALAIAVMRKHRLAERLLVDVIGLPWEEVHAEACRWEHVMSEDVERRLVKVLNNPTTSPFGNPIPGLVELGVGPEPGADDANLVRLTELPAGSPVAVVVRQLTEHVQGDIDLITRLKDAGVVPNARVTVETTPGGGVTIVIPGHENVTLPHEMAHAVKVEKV
T1 sequence (P9WH71 whole entry): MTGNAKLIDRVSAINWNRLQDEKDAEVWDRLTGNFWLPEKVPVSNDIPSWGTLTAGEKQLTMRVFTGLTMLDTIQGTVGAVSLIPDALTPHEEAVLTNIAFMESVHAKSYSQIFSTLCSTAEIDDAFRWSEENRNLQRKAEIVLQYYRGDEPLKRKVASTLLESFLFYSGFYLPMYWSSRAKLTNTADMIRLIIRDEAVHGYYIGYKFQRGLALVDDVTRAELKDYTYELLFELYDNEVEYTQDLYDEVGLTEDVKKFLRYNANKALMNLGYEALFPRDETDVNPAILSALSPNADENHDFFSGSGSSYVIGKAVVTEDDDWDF

Consider `O=[N+]([O-])[O-].[Na+]` [NaNO3, reference compound], for which, in data set [1] (nitrate control), the “effect on mycobacterial growth within macrophages” value was “no effect”.
For `O=[N+]([O-])[O-].O=[N+]([O-])[O-].O=[N+]([O-])[O-].[Ga+3]` [Ga(NO3)3, gallium nitrate], the “effect on P. aeruginosa biofilm formation” value in the data set on P. aeruginosa biofilm (0.3 μM Ga(NO3)3 (sub-inhibitory), up to 4 days) is on record as “subsequent steps in biofilm formation were inhibited”. Further, in the data set on P. aeruginosa [2], the “concentration above which growth rate of P. aeruginosa significantly decreased” value is “exceeded 1 μM”. In data set [3], the “59Fe acquisition by intraphagosomal M. tuberculosis” value is “markedly decreased”. In addition, the tolerability result in data set [4] is recorded as “well tolerated”.
Consider `[Ga+3]` [gallium], for which, on IdeR, the “interference with Ni2+ or Fe2+ activation of IdeR binding” value is recorded as “did not interfere” and the “IdeR binding to HisE promoter DNA fragment” value is given as “did not lead to IdeR binding”. For the same molecule, the “killing of established biofilms” value with established biofilms was “kills established biofilms in a time and concentration dependent manner”. Also, in [1] (extracellularly and even more so intracellularly in macrophages), the “bactericidal activity for M. tuberculosis” value is “bactericidal”. The Cmax in data set [5] is 140 to 700 µM. In addition, the “effect on P. aeruginosa growth” value in data set [6] is listed as “did not inhibit growth”. Moreover, the “competition for M. tuberculosis acquisition of 59Fe” value with Erdman M. tuberculosis [7] is “highly effective in competing”. For the same molecule, the IC50 on M. tuberculosis RR [8] was 450 µM.
Regarding `CC(C)(O/N=C(\C(=O)N[C@@H]1C(=O)N2C(C(=O)[O-])=C(C[n+]3ccccc3)CS[C@H]12)c1csc(N)n1)C(=O)O` [ceftazidime, reference compound], the “effect on P. aeruginosa biofilm development” value with P. aeruginosa biofilm (sub-inhibitory concentration, 0.25 μg/ml) is listed as “did not inhibit biofilm development”.
With `NC(=O)NO` [hydroxyurea], the IC50 on M. tuberculosis RR [9] is 3000 to 5000 µM.
Take “Ga-TF: gallium chelated by serum transferrin (TF)”: the “inhibiting mycobacterial growth compared with Ga(NO3)3” value (in data set [1] (within human macrophages); in the data set on Erdman M. tuberculosis [10]) was “as effective as Ga(NO3)3” in each case.
For the molecule `[Ni+2]` [Ni^2+, reference compound], the “IdeR binding to HisE promoter DNA fragment” value at IdeR is on record as “binding was observed”.
For the molecule `NC[C@H]1O[C@H](O[C@H]2[C@H](O)[C@@H](O[C@H]3O[C@H](CO)[C@@H](O)[C@H](N)[C@H]3O)[C@H](N)C[C@@H]2N)[C@H](N)C[C@@H]1O` [tobramycin], in the data set with P. aeruginosa [11] (levels far in excess of the MIC, biofilm cells), the “reduction of biofilm cell counts” value is given as “approximately 2 logs”. Moreover, the “decrease in planktonic cells” value in the data set with P. aeruginosa [11] (same dosage, planktonic cells) was more than 8 log.
